Test results published in ChEMBL document CHEMBL4402539, “Biological effects and activity optimization of small-molecule, drug-like synthetic anion transporters” (Eur J Med Chem, 2019).

Experiments:
Assay type in all cases: functional, cell-based
CAPAN-1 = assay: Cytotoxicity in human Capan1 cells assessed as reduction in cell viability after 18 hrs by MTT assay; details: CAPAN-1, 18 h
HCT-116 = assay: Cytotoxicity in human HCT116 cells assessed as reduction in cell viability after 18 hrs by MTT assay; details: HCT-116, 18 h
HeLa = assay: Cytotoxicity in human HeLa cells assessed as reduction in cell viability after 18 hrs by MTT assay
A549 = assay: Cytotoxicity in human A549 cells assessed as reduction in cell viability after 18 hrs by MTT assay; details: A549, 18 h

Measured: IC50

CC1(C)c2ccc([nH]2)C2(C)CCCNC(=O)c3cccc(n3)C(=O)NCCCC(C)(c3ccc1[nH]3)c1ccc([nH]1)C(C)(C)c1ccc2[nH]1
10 to 15 µM: all assays above

CC1(C)c2ccc([nH]2)C2(C)CCCCNC(=O)c3cccc(n3)C(=O)NCCCCC(C)(c3ccc1[nH]3)c1ccc([nH]1)C(C)(C)c1ccc2[nH]1
10 to 15 µM: all assays above
